In brackets after ≈: the same amount, converted by molar mass. Like-named read-outs stand apart in the source and are kept apart here. Where a SMILES comes first, the peptide text is derived from it. Where no end group is shown, it is not given here.
Legend:
[1] = test system: at least one of the ten bacterial species tested: Bacillus subtilis, Micrococcus luteus, Staphyloccus aureus, Staphylococcus epidermis, Escherichia coli …; design: method as in Won and co-workers [2]; key: ✓: Whether the peptide shows antimicrobial activity against at least one of the ten bacterial species tested in the work; conditions: activity against at least one of ten bacterial species; blank cell = not active; ref Won and co-workers [2]; cited from earlier work
[2] = test system: all E. coli strains tested; format: cell-based, Escherichia coli
Source text: (§1) From the novel candidate AMP sequences predicted by AMPlify, 11 were selected for validation in vitro. Minimum inhibitory concentrations (MIC) and minimum bactericidal concentrations (MBC) were obtained using the AST procedures outlined by the Clinical and Laboratory Standards Institute (CLSI), with the recommended adaptations for testing cationic AMPs described by Hancock.
(§2) A panel of two Gram-positive and four Gram-negative bacterial isolates was generated to test predicted AMPs. Staphylococcus aureus ATCC 6538P, Streptococcus pyogenes (hospital isolate, unknown strain), Pseudomonas aeruginosa ATCC 10148, and Escherichia coli ATCC 9723H were obtained and tested at the University of Victoria. Additionally, a multi-drug resistant (MDR), carbapenemase-producing New-Delhi metallobetalactamase (CPO-NDM) clinical isolate of Escherichia coli was obtained from the BC Centre for Disease Control. E. coli ATCC 29522 was purchased from Cedarlane Laboratories (Burlington, Ontario, Canada) for comparison of AMP activity between a wild type, drug-susceptible control and the MDR strain. The latter two strains were tested at the BC Centre for Disease Control using identical AST procedures.
(§3) Bacteria were streaked onto nonselective nutrient agar from frozen stocks and incubated for 18–24 h at 37 °C. To prepare a standardized bacterial inoculum, isolated colonies were suspended in Mueller-Hinton Broth (MHB) and adjusted to an optical density of 0.08–0.1 at 600 nm, equivalent to a 0.5 McFarland standard and representing approximately 1–2 × 10^8 CFU/mL (CFU: colony forming units). The inoculum was diluted 1/250 in MHB to the target concentration of (5 ± 3) × 10^5 CFU/mL. Total viability counts from the final inoculum were examined to confirm the target bacterial density was obtained.
(§4) Selected candidate AMPs were purchased from Genscript (Piscataway, NJ), where they were synthesized using the vendor’s Flexpeptide platform. Lyophilized peptides were suspended in sterile ultrapure water or filter-sterilized 0.2% acetic acid as recommended by solubility testing reports provided with the GenScript synthesis. AMPs were diluted from 2560 to 5 μg/mL by a two-fold serial dilution in a 96-well polypropylene microtitre plate before 100 μl of the standardized bacterial inoculum of (5 ± 3) × 10^5 CFU/mL was added to each well. This generated a final test range of 256 to 0.5 μg/mL. MIC values were reported as the peptide concentration that produced no visible bacterial growth after a 16–24 h incubation at 37 °C.
(§5) For each AMP dilution series, the contents of the MIC well and the two adjacent wells containing two- and four-fold MIC were plated onto nonselective nutrient agar and incubated for 24 h at 37 °C. The concentration which killed 99.9% of the initial inoculum was determined to be the MBC.

[3] = test system: MDR E. coli (CPO-NDM) clinical isolate; format: cell-based, Escherichia coli
Source text: as §1, §2, §3, §4, §5

E. coli ATCC 25922 = format: cell-based, Escherichia coli
Source text: as §1
as §2, with “E. coli ATCC 29522 was purchased from Cedarlane Laboratories (Burlington, Ontario, Canada) for comparison of AMP activity between a wild type, drug-susceptible control and the MDR strain.” left out
as §3, §4, §5

[4] = test system: Streptococcus pyogenes (unknown strain; hospital isolate); format: cell-based
Source text: as §1, §2, §3, §4, §5

[5] = test system: Escherichia coli ATCC 9723H; format: cell-based
Source text: as §1, §2, §3, §4, §5

[6] = test system: Staphylococcus aureus ATCC 6538P; format: cell-based
Source text: as §1, §2, §3, §4, §5

[7] = range over all E. coli strains tested (ATCC 9723H, ATCC 25922, MDR CPO-NDM)

Compound | Active? [1] | MBC ([2]; all strains tested) | MIC ([2]; all strains tested) | MBC [3] | MBC ([3]; 24 h) | MBC (E. coli ATCC 25922; ATCC 25922) | MBC (E. coli ATCC 25922; ATCC 25922, 24 h) | MBC [4] | MIC [4] | MBC ([4]; 24 h) | MBC ([5]; ATCC 9723) | MBC ([5]; ATCC 9723, 24 h) | MIC [3] | MBC ([6]; ATCC 6538) | MBC ([6]; ATCC 6538, 24 h) | MBC [2, 7] | MIC [2, 7] | MBC (E. coli ATCC 25922; E. coli ATCC 25922, as Table 3, in µg/mL, range over three independent experiments, NI = no inhibition observed) | MBC (E. coli ATCC 25922; E. coli ATCC 25922, plated on agar 24 h at 37 °C, kills 99.9% of inoculum, range over three independent experiments, NI = no inhibition observed) | MIC ([6]; ATCC 6538)
Gaegurin 5 [GGN5] | ✓ | – | – | – | – | – | – | – | – | – | – | – | – | – | – | – | – | – | – | –
CC[C@H](C)[C@H](NC(=O)[C@H](CCCCN)NC(=O)[C@@H](NC(=O)[C@H](C)NC(=O)[C@H](Cc1ccccc1)NC(=O)[C@H](CC(=O)O)NC(=O)[C@H](CCCCN)NC(=O)CNC(=O)[C@@H](NC(=O)[C@@H](NC(=O)[C@H](CCCCN)NC(=O)[C@@H](NC(=O)[C@@H](NC(=O)[C@H](CC(=O)O)NC(=O)[C@H](CC(C)C)NC(=O)[C@H](CC(C)C)NC(=O)CN)[C@@H](C)CC)[C@@H](C)CC)[C@@H](C)O)[C@@H](C)O)C(C)C)C(=O)N[C@@H](CC(C)C)C(=O)N[C@@H](CC(=O)O)C(=O)N[C@@H](CC(N)=O)C(=O)N[C@@H](CC(C)C)C(=O)N[C@@H](CCCCN)C(=O)N[C@@H](CS)C(=O)N[C@@H](CCCCN)C(=O)N[C@@H](CC(C)C)C(=O)N[C@@H](C)C(=O)NCC(=O)NCC(=O)N[C@@H](CS)C(=O)N1CCC[C@H]1C(=O)N1CCC[C@H]1C(=O)O [RaCa-1] (H-GLLDIIKTTGKDFAVKILDNLKCKLAGGCPP-OH; N-terminus and C-terminus assumed) | – | 10 to 79 µM | 10 to 39 µM | 64 to 128 µg/mL | 20 to 39 µM | 32 to 128 µg/mL | 10 to 39 µM | ≥ 256 µg/mL | 256 µg/mL (≈ 78.9 µM) | ≥ 79 µM | 128 to 256 µg/mL | 39 to 79 µM | – | – | – | – | – | – | – | –
CC[C@H](C)[C@H](NC(=O)[C@H](CO)NC(=O)[C@H](CCCCN)NC(=O)CNC(=O)[C@@H](NC(=O)[C@@H](NC(=O)[C@H](CCCCN)NC(=O)[C@@H](NC(=O)[C@@H](NC(=O)[C@H](CCC(=O)O)NC(=O)[C@H](Cc1c[nH]c2ccccc12)NC(=O)[C@H](CC(C)C)NC(=O)CN)[C@@H](C)O)[C@@H](C)CC)[C@@H](C)O)[C@@H](C)O)C(=O)N[C@@H](C)C(=O)N[C@@H](CC(C)C)C(=O)N[C@@H](CC(N)=O)C(=O)N[C@@H](CC(C)C)C(=O)N[C@@H](CC(C)C)C(=O)N[C@@H](CC(=O)O)C(=O)N[C@@H](CCCCN)C(=O)N[C@H](C(=O)N[C@@H](CCCCN)C(=O)N[C@@H](CS)C(=O)N[C@@H](CCCCN)C(=O)N[C@H](C(=O)N[C@@H](C)C(=O)NCC(=O)NCC(=O)N[C@@H](CS)C(=O)N1CCC[C@H]1C(=O)N1CCC[C@H]1C(=O)O)[C@@H](C)CC)[C@@H](C)CC [RaCa-3] (H-GLWETIKTTGKSIALNLLDKIKCKIAGGCPP-OH; N-terminus and C-terminus assumed) | – | 2 to 20 µM | 2 to 10 µM | 16 to 64 µg/mL | 5 to 20 µM | 8 to 16 µg/mL | 2 to 5 µM | – | – | – | 16 to 32 µg/mL | 5 to 10 µM | 16 to 32 µg/mL | – | – | – | – | – | – | –
CC[C@H](C)[C@H](NC(=O)[C@@H](NC(=O)[C@@H]1CCCN1C(=O)[C@H](Cc1ccccc1)NC(=O)[C@@H](N)Cc1ccccc1)[C@@H](C)CC)C(=O)N[C@@H](C)C(=O)N[C@@H](CCCNC(=N)N)C(=O)N[C@@H](CC(C)C)C(=O)N[C@@H](C)C(=O)N[C@@H](C)C(=O)N[C@@H](CCCCN)C(=O)N[C@H](C(=O)N[C@H](C(=O)N1CCC[C@H]1C(=O)N[C@@H](CO)C(=O)N[C@@H](CC(C)C)C(=O)N[C@H](C(=O)N[C@@H](CS)C(=O)N[C@@H](C)C(=O)N[C@H](C(=O)N[C@H](C(=O)N[C@@H](CCCCN)C(=O)N[C@@H](CCCCN)C(=O)N[C@@H](CS)C(=O)O)[C@@H](C)O)C(C)C)C(C)C)[C@@H](C)CC)C(C)C [RaCa-2] (H-FFPIIARLAAKVIPSLVCAVTKKC-OH; N-terminus and C-terminus assumed) | – | – | 2 to 6 µM | 4 to 16 µg/mL | 2 to 6 µM | 4 to 16 µg/mL | 2 to 6 µM | 64 to 128 µg/mL | – | 25 to 49 µM | 8 to 16 µg/mL | 3 to 6 µM | 4 to 16 µg/mL | 2 to 4 µg/mL | 1 to 2 µM | – | – | – | – | –
CC[C@H](C)[C@H](NC(=O)[C@H](CCCCN)NC(=O)[C@H](CCC(=O)O)NC(=O)[C@H](CCCCN)NC(=O)[C@H](CO)NC(=O)[C@H](CCCCN)NC(=O)[C@H](CCCNC(=N)N)NC(=O)[C@H](Cc1ccccc1)NC(=O)[C@H](Cc1ccccc1)NC(=O)[C@H](CC(=O)O)NC(=O)CNC(=O)[C@H](CC(C)C)NC(=O)[C@@H](N)CC(C)C)C(=O)NCC(=O)N[C@@H](CCCCN)C(=O)N[C@@H](CCC(=O)O)C(=O)N[C@@H](Cc1ccccc1)C(=O)N[C@@H](CCCCN)C(=O)N[C@@H](CCCNC(=N)N)C(=O)N[C@H](C(=O)N[C@H](C(=O)N[C@@H](CCC(N)=O)C(=O)N[C@@H](CCCNC(=N)N)C(=O)N[C@H](C(=O)N[C@@H](CCCCN)C(=O)N[C@@H](CC(=O)O)C(=O)N[C@@H](Cc1ccccc1)C(=O)N[C@@H](CC(C)C)C(=O)N[C@@H](CCCNC(=N)N)C(=O)N[C@@H](CC(N)=O)C(=O)N[C@@H](CC(C)C)C(=O)N[C@H](C(=O)N1CCC[C@H]1C(=O)N[C@@H](CCCNC(=N)N)C(=O)N[C@H](C(=O)N[C@@H](CCC(=O)O)C(=O)N[C@@H](CO)C(=O)O)[C@@H](C)O)C(C)C)[C@@H](C)CC)C(C)C)[C@@H](C)CC [LL37, reference compound] | – | – | – | – | – | – | – | – | – | – | – | – | – | – | – | 2 to 7 µM | 2 to 4 µM | 8 to 16 µg/mL | 2 to 4 µM | –
FFPRVLPLANKFLPTIYCALPKSVGN [RaCa-7] | – | 6 to 88 µM | 6 to 44 µM | 16 to 128 µg/mL | 6 to 44 µM | 16 to 128 µg/mL | 6 to 44 µM | – | – | – | 32 to 256 µg/mL | 11 to 88 µM | – | – | – | – | – | – | – | ≥ 88 µM

Source: paper PMC8788131, “AMPlify: attentive deep learning model for discovery of novel antimicrobial peptides effective against WHO priority pathogens” (BMC Genomics, 2022)
